# From patent publication US20240124444A1 (Celgene Corporation, priority 2020, published 2024)
# Like-named read-outs stand apart in the source and are kept apart here.
# System: C. parvum strain UGA1
# Experiment: C. parvum growth inhibition assay (Nluc luminescence in HCT-8 cells)
# Assay type: cell-based, Cryptosporidium parvum
# Conditions: Cryptosporidium parvum; for inhibition at 1 µM / inhibition at 10 µM: HCT-8; for inhibition at 1 µM: read-out: % inh @ 1 uM C. parvum; for inhibition at 10 µM: read-out: % inh @ 10 uM C. parvum; for EC50: HCT-8, 48 h, C. parvum growth inhibition in HCT-8 cells, 48 hours, 6 concentrations 10-0.04 μM
# [1] = single point inhibition @ 10 uM
# [2] = single point inhibition at 1 uM
# [3] = single point inhibition at 10 uM
SMILES,inhibition at 1 µM (single point inhibition @ 1 uM),inhibition at 10 µM [1],EC50,inhibition at 1 µM [2],inhibition at 10 µM [3]
"CC(C)n1cc(C(=O)Nc2cc3c(cn2)cc(-c2ccnc(NC4CC4)n2)n3C)cn1 [Example 132, N-(2-(2-(cyclopropylamino)pyrimidin-4-yl)-1-methyl-1H-pyrrolo[3,2-c]pyridin-6-yl)-1-isopropyl-1H-pyrazole-4-carboxamide]",0 to 33%,67 to 100%,,,
"Cn1cc(-c2cc3cnc(Nc4ccccc4)cc3n2C)cn1 [Example 70, 1-methyl-2-(1-methyl-1H-pyrazol-4-yl)-N-phenyl-1H-pyrrolo[3,2-c]pyridin-6-amine]",33 to 66%,67 to 100%,> 1 µM,,
"Cn1cc(C(=O)Nc2cc3c(cn2)cc(-c2ccnc(NCC(F)(F)F)n2)n3CCO)cn1 [Example 80, N-(1-(2-hydroxyethyl)-2-(2-(2,2,2-trifluoroethylamino)pyrimidin-4-yl)-1H-pyrrolo[3,2-c]pyridin-6-yl)-1-methyl-1H-pyrazole-4-carboxamide]",0 to 33%,33 to 66%,> 1 µM,,
"O=C(Nc1cc2c(cn1)cc(C(F)(F)F)n2CCO)C1CC1 [Example 116, N-(1-(2-hydroxyethyl)-2-(trifluoromethyl)-1H-pyrrolo[3,2-c]pyridin-6-yl)cyclopropanecarobxamide]",,,> 1 µM,,
"COc1nccc(-c2cc3cnc(NC(=O)C4CC4)cc3n2CCO)n1 [Example 343, N-(1-(2-hydroxyethyl)-2-(2-methoxypyrimidin-4-yl)-1H-pyrrolo[3,2-c]pyridin-6-yl)cyclopropanecarboxamide]",,,> 1 µM,,
"O=C(Nc1cc2[nH]c(-c3cnc(C(F)(F)F)s3)cc2cn1)C1CC1 [Example 103, N-(2-(2-(trifluoromethyl)thiazol-5-yl)-1H-pyrrolo[3,2-c]pyridin-6-yl)cyclopropanecarboxamide]",,,> 1 µM,,
"COc1nccc(-c2cc3cnc(NC(=O)CC4COC4)cc3n2C)n1 [Example 87, N-(2-(2-methoxypyrimidin-4-yl)-1-methyl-1H-pyrrolo[3,2-c]pyridin-6-yl)-2-(oxetan-3-yl)acetamide]",33 to 66%,0 to 33%,> 1 µM,,
"Cc1cc(-c2cc3cnc(NC(=O)c4cnn(C5CCOC5)c4)cc3[nH]2)ccn1 (stereo not drawn) [Example 236, N-(2-(2-methylpyridin-4-yl)-1H-pyrrolo[3,2-c]pyridin-6-yl)-1-(tetrahydrofuran-3-yl)-1H-pyrazole-4-carboxamide]",,,,33 to 66%,33 to 66%
"Cn1cc(C(=O)Nc2cc3c(cn2)cc(-c2ccnc(C(F)(F)F)n2)n3C)cn1 [Example 200, 1-methyl-N-(1-methyl-2-(2-(trifluoromethyl)pyrimidin-4-yl)-1H-pyrrolo[3,2-c]pyridin-6-yl)-1H-pyrazole-4-carboxamide]",,,,33 to 66%,67 to 100%
"Cn1cc(C(=O)Nc2cc3[nH]c(-c4ccc(F)cn4)cc3cn2)cn1 [Example 334, N-(2-(5-fluoropyridin-2-yl)-1H-pyrrolo[3,2-c]pyridin-6-yl)-1-methyl-1H-pyrazole-4-carboxamide]",,,,0 to 33%,0 to 33%
"Cn1cnc(-c2cc3cnc(NC(=O)C4CC4)cc3n2C)n1 [Example 57, N-(1-methyl-2-(1-methyl-1H-1,2,4-triazol-3-yl)-1H-pyrrolo[3,2-c]pyridin-6-yl)cyclopropanecarboxamide]",,,> 1 µM,,
"N#Cc1cc(-c2cc3cnc(Nc4cccc(-c5nnc[nH]5)c4)cc3[nH]2)ccn1 [Example 79, 4-(6-(3-(4H-1,2,4-triazol-3-yl)phenylamino)-1H-pyrrolo[3,2-c]pyridin-2-yl)picolinonitrile]",33 to 66%,67 to 100%,> 1 µM,,
"Cc1cc(-c2cc3cnc(NC4CCN(C)CC4)cc3[nH]2)ccn1 [Example 112, N-(1-methylpiperidin-4-yl)-2-(2-methylpyridin-4-yl)-1H-pyrrolo[3,2-c]pyridin-6-amine]",,,> 1 µM,,
"Cc1cc(-c2cc3cnc(NC(=O)C4CC4)cc3n2CCN(C)C)ccn1 [Example 333, N-(1-(2-(dimethylamino)ethyl)-2-(2-methylpyridin-4-yl)-1H-pyrrolo[3,2-c]pyridin-6-yl)cyclopropanecarboxamide]",,,,0 to 33%,0 to 33%
"Cc1cc(-c2cc3cnc(NC(=O)c4cccc5c4cnn5C)cc3[nH]2)ccn1 [Example 288, 1-methyl-N-(2-(2-methylpyridin-4-yl)-1H-pyrrolo[3,2-c]pyridin-6-yl)-1H-indazole-4-carboxamide]",,,,0 to 33%,0 to 33%
"CC(C)c1nccc(-c2cc3cnc(NC4CCOCC4)cc3n2C)n1 [Example 391, 2-(2-isopropylpyrimidin-4-yl)-1-methyl-N-(tetrahydro-2H-pyran-4-yl)-1H-pyrrolo[3,2-c]pyridin-6-amine]",,,> 1 µM,,
"Cc1nn(C)cc1C(=O)Nc1cc2[nH]c(-c3ccncc3)cc2cn1 [Example 278, 1,3-dimethyl-N-(2-(pyridin-4-yl)-1H-pyrrolo[3,2-c]pyridin-6-yl)-1H-pyrazole-4-carboxamide]",,,,0 to 33%,0 to 33%

SMILES,inhibition at 1 µM (single point inhibition @ 1 uM),inhibition at 10 µM [1],EC50,inhibition at 1 µM [2],inhibition at 10 µM [3]
Cn1cc(-c2cc3cnc(Nc4ccc(C(F)(F)F)cc4)cc3[nH]2)cn1 [Example 222],,,,,33 to 66%
"Cc1cc(-c2cc3cnc(Nc4cccc(-c5nc[nH]n5)c4)cc3[nH]2)ccn1 [Example 66, N-(3-(1H-1,2,4-triazol-3-yl)phenyl)-2-(2-methylpyridin-4-yl)-1H-pyrrolo[3,2-c]pyridin-6-amine]",67 to 100%,67 to 100%,> 1 µM,,
"COc1cc(-c2cc3cnc(NC4CCOCC4)cc3n2C)ncn1 [Example 388, 2-(6-methoxypyrimidin-4-yl)-1-methyl-N-(tetrahydro-2H-pyran-4-yl)-1H-pyrrolo[3,2-c]pyridin-6-amine]",,,> 1 µM,,
"Cc1nn(C)cc1C(=O)Nc1cc2[nH]c(-c3ccnc(OCC(F)F)n3)cc2cn1 [Example 317, N-(2-(2-(2,2-difluoroethoxy)pyrimidin-4-yl)-1H-pyrrolo[3,2-c]pyridin-6-yl)-1,3-dimethyl-1H-pyrazole-4-carboxamide]",,,,0 to 33%,0 to 33%
"Cc1nn(C)cc1C(=O)Nc1cc2[nH]c(-c3ccnc(OCC(F)(F)F)n3)cc2cn1 [Example 226, 1,3-dimethyl-N-(2-(2-(2,2,2-trifluoroethoxy)pyrimidin-4-yl)-1H-pyrrolo[3,2-c]pyridin-6-yl)-1H-pyrazole-4-carboxamide]",,,,0 to 33%,33 to 66%
CCn1cc(C(=O)Nc2cc3[nH]c(-c4ccnc(OCC(F)F)n4)cc3cn2)c(C)n1 [Example 318],,,,0 to 33%,0 to 33%
"O=C(Nc1cc2[nH]c(-c3ccnc(C(F)(F)F)n3)cc2cn1)[C@H]1C[C@H](O)C1 [Example 92, (1r,3r)-3-hydroxy-N-(2-(2-(trifluoromethyl)pyrimidin-4-yl)-1H-pyrrolo[3,2-c]pyridin-6-yl)cyclobutanecarboxamide]",33 to 66%,0 to 33%,> 1 µM,,
"Cc1cc(-c2cc3cnc(NC(=N)C4CC4)cc3[nH]2)ccn1 [Example 96, N-(2-(2-methylpyridin-4-yl)-1H-pyrrolo[3,2-c]pyridin-6-yl)cyclopropanecarboximidamide]",,,> 1 µM,,
"O=C(Nc1cc2[nH]c(-c3ccncc3)cc2cn1)c1cnn(C2CCOCC2)c1 [Example 154, N-(2-(pyridin-4-yl)-1H-pyrrolo[3,2-c]pyridin-6-yl)-1-(tetrahydro-2H-pyran-4-yl)-1H-pyrazole-4-carboxamide]",0 to 33%,67 to 100%,,,
"COc1nccc(-c2cc3cnc(NC(=O)c4cnn(CC5CCOC5)c4)cc3[nH]2)n1 (stereo in doubt) [Example 156, (S)-N-(2-(2-methoxypyrimidin-4-yl)-1H-pyrrolo[3,2-c]pyridin-6-yl)-1-((tetrahydrofuran-3-yl)methyl)-1H-pyrazole-4-carboxamide]",0 to 33%,67 to 100%,,,
"Cn1cc(C(=O)Nc2cc3[nH]c(C#N)cc3cn2)cn1 [Example 280, N-(2-cyano-1H-pyrrolo[3,2-c]pyridin-6-yl)-1-methyl-1H-pyrazole-4-carboxamide]",,,,0 to 33%,0 to 33%
"CN(CC(F)(F)F)c1nccc(-c2cc3cnc(NC4CCOCC4)cc3[nH]2)n1 [Example 370, 2-(2-(methyl(2,2,2-trifluoroethyl)amino)pyrimidin-4-yl)-N-(tetrahydro-2H-pyran-4-yl)-1H-pyrrolo[3,2-c]pyridin-6-amine]",,,0.5 to 1 µM,,
"COc1nccc(-c2cc3cnc(NC(=O)c4cn(C)nc4C)cc3[nH]2)n1 [Example 250, N-(2-(2-methoxypyrimidin-4-yl)-1H-pyrrolo[3,2-c]pyridin-6-yl)-1,3-dimethyl-1H-pyrazole-4-carboxamide]",,,,0 to 33%,0 to 33%
"Cc1cc2cnc(NC(=O)C3CC3)cc2[nH]1 [Example 327, N-(2-methyl-1H-pyrrolo[3,2-c]pyridin-6-yl)cyclopropanecarboxamide]",,,,0 to 33%,0 to 33%
"COc1nccc(-c2cc3cnc(NC(=O)[C@H]4C[C@H](O)C4)cc3[nH]2)n1 [Example 63, (1r,3r)-3-hydroxy-N-(2-(2-methoxypyrimidin-4-yl)-1H-pyrrolo[3,2-c]pyridin-6-yl)cyclobutanecarboxamide]",0 to 33%,67 to 100%,> 1 µM,,
"O=C(Nc1cc2[nH]c(-c3cnc(C4CC4)o3)cc2cn1)C1CC1 [Example 61, N-(2-(2-cyclopropyloxazol-5-yl)-1H-pyrrolo[3,2-c]pyridin-6-yl)cyclopropanecarboxamide]",,,> 1 µM,,
"CCn1c(-c2ccnc(OC)n2)cc2cnc(NC(=O)C3CC3)cc21 [Example 344, N-(1-ethyl-2-(2-methoxypyrimidin-4-yl)-1H-pyrrolo[3,2-c]pyridin-6-yl)cyclopropanecarboxamide]",,,0.5 to 1 µM,,
